system: HIO80 cells; experiment: Cell proliferation assay (alamarBlue), control cell line HIO80; type: cell-based, human; conditions: 48 h incubation
Experimental: The cell line COV362 (CVCL_2,420) was originally established from a high-grade ovarian serous adenocarcinoma from a metastatic site in the pleural effusion ([van den Berg-Bakker et al., 1993]) and was purchased from ECACC (ECACC 07071910) as p37 on 13 October 2017. The growth medium for COV362 cells was DMEM (D5546; Sigma–Aldrich GmbH), with 10% FBS (F9665; Sigma–Aldrich GmbH) and 2 mM L-glutamine (G7513; Sigma–Aldrich GmbH). COV362 cells in passages p37 + 12 to p37 + 17 were used in this study and seeded at a concentration of 3.5 cells/ml × 10^4 cells/ml for proliferation studies and at a concentration of 5.3 × 10^5/ml for migration studies. The cell line OVCAR-4 (CVCL_1,627) is a high-grade serous ovarian adenocarcinoma cell line established from a patient refractory to cisplatin ([Johnson et al., 1997]). The cell line was purchased from Merck on 19 March 2021. The growth medium for OVCAR-4 cells was RPMI-1640 (Sigma R5586) supplemented with 2 mM glutamine (G7513; Sigma–Aldrich GmbH), 10% FBS (F9665; Sigma–Aldrich GmbH), 0.25 μg/ml insulin (I9278; Sigma–Aldrich GmbH). OVCAR-4 cells in passages p+6 to p+15 were used in this study and seeded at a concentration of 6 cells/ml × 10^4 cells/ml. The control cell line HIO80 (CVCL_E274) was obtained from Andrew K. Godwin (University of Kansas Medical Center, Kansas, United States) on 20 October 2017 as p+72. It was originally established from ovarian surface epithelium ([Yang et al., 2004]). HIO80 cells were grown in RPMI medium (R5886, Sigma–Aldrich GmbH) supplemented with 10% FBS (F9665; Sigma–Aldrich GmbH), 2 mm L-glutamine (G7513; Sigma–Aldrich GmbH) and 6.6 µg/ml insulin (I9278; Sigma–Aldrich GmbH). HIO80 cells in passages p72 + 8 to p72 + 19 were used in this study and seeded at a concentration of 2 × 10^4 cells/mL. HIO80 in passage +10 was authenticated by short tandem repeats (STR) profiling performed by ATCC on 22 February 2019. Cells were grown in a humidified atmosphere containing 5% CO2 at 37°C. All cell lines were negative for mycoplasma infection which was periodically tested using MycoAlert^TM mycoplasma detection kit (Lonza, Basel, Switzerland).
The effect of ruthenium compounds on the proliferation of ovarian cancer cell lines COV362 and OVCAR-4 and the control cell line HIO80 was analyzed using the cell proliferation reagent alamarBlue HS (A50101; Thermo Fisher Scientific) following the manufacturer’s instructions.
Cells were seeded in 96-well plates in 100 µL of medium and allowed to adhere and grow for 24 h. […] Cisplatin and carboplatin purchased from Sigma–Aldrich GmbH (cat. number: PHR1624, lot: LRAB7778) and (cat. number: C2538, lot: MKCK1243) were dissolved in sterile water. Working solutions were prepared by a serial dilution of stock solutions with a culture medium. After the initial incubation, cells were treated with ruthenium complexes, cisplatin, and carboplatin. A range of final concentrations between 0.001 and 300 µM were used for ruthenium complexes and cisplatin, and between 0.001 µM and 1 mM for carboplatin. After 48 h of incubation, plates were incubated with 20 µL of alamarBlue. After 4 h absorbance was measured with a BioTek microplate spectrophotometer at 570 nm, with the reference wavelength set at 600 nm. First, the background value of a well containing the active substance without cells was subtracted, then the average values for duplicates/triplicates were calculated. The absorbance of the well containing only untreated cells was used as a normalization control. The half-maximal […] concentration (IC50) was determined for all ruthenium complexes with a growth-inhibiting effect on cells by constructing a dose-response curve (Graph Pad Prism, Version 8.0).

Question: `Cc1ccc(C(C)C)cc1.O=C(C=C([O][Ru][Cl])c1ccc(I)cc1)C(F)(F)F` [Compound 1] was tested. Which IC50 did it give?
Answer: 41.9 µM

Question: For `C1N2CN3CN1CP(C2)C3.Cc1ccc(C(C)C)cc1.F[P-](F)(F)(F)(F)F.O=C(C=C([O][Ru+])c1ccc(I)cc1)C(F)(F)F` [Compound 2], which IC50 is on record?
Answer: 92 µM

Question: Which IC50 does the source give for `CN(C)c1ccc(C(=CC(=O)C(F)(F)F)[O][Ru][Cl])cc1.Cc1ccc(C(C)C)cc1` [Compound 3, (η^6-p-cymene)chlorido(4,4,4-trifluoro-1-(4-(dimethylamino)phenyl)-1,3-butandionato)ruthenium(II)] here?
Answer: 34.7 µM

Question: How did the IC50 turn out when `Cc1ccc(C(C)C)cc1.O=C(C=C([O][Ru][Cl])c1ccc2c(c1)OCO2)C(F)(F)F` [Compound 5] was run?
Answer: 60.5 µM

Question: Which IC50 does the source give for `C1N2CN3CN1CP(C2)C3.Cc1ccc(C(C)C)cc1.F[P-](F)(F)(F)(F)F.O=C(C=C([O][Ru+])c1ccc2c(c1)OCO2)C(F)(F)F` [Compound 6] here?
Answer: 187 µM

Question: How did the IC50 turn out when `Cc1ccc(C(C)C)cc1.[Cl-].[O-]c1c(I)cc(Cl)c2cccnc12.[Ru+2]` [Compound 7] was run?
Answer: 14.3 µM

Question: How did the IC50 turn out when `C1N2CN3CN1CP(C2)C3.Cc1ccc(C(C)C)cc1.F[P-](F)(F)(F)(F)F.[O-]c1c(I)cc(Cl)c2cccnc12.[Ru+2]` [Compound 8] was run?
Answer: 32.5 µM

Question: How did the IC50 turn out when `Cc1ccc(C(C)C)cc1.O=[N+]([O-])c1ccc([O][Ru][Cl])c2ncccc12` [Compound 9, (η ^6-p-Cymene) (nitroxolinato)chloridoruthenium (II)] was run?
Answer: 12.8 µM

Question: For `C1N2CN3CN1CP(C2)C3.Cc1ccc(C(C)C)cc1.F[P-](F)(F)(F)(F)F.O=[N+]([O-])c1ccc([O][Ru+])c2ncccc12` [Compound 10, (η ^6-p-cymene)(nitroxolinato)(pta)ruthenium(II) hexafluorophosphate], which IC50 is on record?
Answer: > 200 µM
